Key:
[1] = target: T1, m1 muscarinic receptors (Rattus norvegicus, UniProt P08482); experiment: Irreversible labelling: [3H]NMS saturation of treated vs. control rat forebrain membranes; assay type: binding; conditions: in words
T1 sequence (P08482 1-460): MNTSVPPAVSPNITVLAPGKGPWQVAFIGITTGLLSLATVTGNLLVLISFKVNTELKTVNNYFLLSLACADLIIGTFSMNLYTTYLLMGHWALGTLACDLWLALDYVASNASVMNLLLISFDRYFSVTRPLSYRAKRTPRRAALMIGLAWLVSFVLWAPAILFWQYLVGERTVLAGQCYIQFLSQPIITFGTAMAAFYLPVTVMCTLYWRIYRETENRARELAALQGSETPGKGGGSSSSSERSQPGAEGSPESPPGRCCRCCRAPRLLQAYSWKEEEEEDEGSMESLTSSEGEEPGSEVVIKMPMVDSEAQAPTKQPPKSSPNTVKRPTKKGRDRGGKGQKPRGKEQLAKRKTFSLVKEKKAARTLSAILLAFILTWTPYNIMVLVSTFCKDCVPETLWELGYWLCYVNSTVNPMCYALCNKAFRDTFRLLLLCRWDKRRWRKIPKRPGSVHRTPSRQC
Experimental: When incubated with membranes from rat forebrain tissue […] followed by thorough washing, compound 41a caused an unrecoverable reduction in the Bmax at m1 receptors of 90-95% (from saturation of treated vs. control membranes with [3H]NMS).

[2] = system: gastric acid production; conditions: clinical; in words; cited from earlier work

| SMILES | chemical affinity labelling of m1 receptors [1] | inhibition of gastric acid production (literature) [2] |
| --- | --- | --- |
| O=C1Nc2cccnc2N(C(=O)CN2CCN(CCCCCCCCCCNC(=S)Nc3cccc(N=C=S)c3)CC2)c2ccccc21 [Compound 41a, n=10, 5,11-Dihydro-11-[[4-[10-[(3-isothiocyanatophenyl)aminothiocarbonylamino]decyl]-1-piperazinyl]acetyl]-6H-pyrido[2,3-b][1,4]-benzodiazepine-6-one] | potent chemical affinity label for ml receptors |  |
| CN1CCN(CC(=O)N2c3ccccc3C(=O)Nc3cccnc32)CC1 [pirenzepine] |  | useful clinically in the inhibition of gastric acid production |
